Data reported in patent US6579896B2, “Method for treating allergies using substituted pyrazoles” (Ortho-McNeil Pharmaceutical, Inc., priority 2000, dated 2003).

How the values were obtained:
[1] = test system: invariant chain (Ii) degradation by cathepsin S in PBMC; assay: Monitoring cathepsin S inhibition in human blood: p10Ii fragment accumulation (Western blot); assay type: cell-based; settings: PBMC from human blood, incubation for 24 h, SDS-PAGE / Western blot
[2] = test system: PBMC from allergic donors (T cells, ConA pan-T cell mitogen); assay: T cell proliferative responses induced by ConA; assay type: cell-based, human; settings: specificity control
[3] = test system: PBMC from HDM-allergic donors (allergen-specific CD4 T cells); assay: Ex vivo human T cell-proliferation assay, house dust mite extracts (Der p, Der f); assay type: cell-based; settings: PBMC of four HDM-allergic donors, Der p or Der f extract, 7 days culture, FIG. 1B
[4] = test system: PBMC from ragweed-allergic donors (allergen-specific CD4 T cells); assay: Ex vivo human T cell-proliferation assay, ragweed extracts (short and giant); assay type: cell-based; settings: PBMC of two ragweed-allergic donors, short and giant ragweed extract, 7 days culture, FIG. 2B

For `CC(C)C[C@H](NC(=O)N1CCOCC1)C(=O)N[C@H](/C=C/S(=O)(=O)c1ccccc1)CCc1ccccc1` [LHVS, 4-morpholinecarboxamide, N-[(1S)-3-methyl-1-[[[(1S,2E)-1-(2-phenylethyl)-3-(phenylsulfonyl)-2-propenyl]amino]carbonyl]butyl]-], the “p10Ii fragment of invariant chain (block in degradation of Ii)” value [1] was “the p10Ii fragment was seen”, the “T cell proliferative responses induced by ConA” value ([2]; HDM-allergic donors) was “not affected” and the “T cell proliferative responses induced by ConA” value ([2]; ragweed-allergic donors) was “not affected”. The “T cell proliferation (3H-thymidine incorporation) induced by HDM extracts” value [3] was “strongly inhibited” and the “T cell proliferation (3H-thymidine incorporation) induced by ragweed extracts” value [4] was “strongly inhibited”.
